19 molecules from PMC3961306, “Comparison of the Cancer Gene Targeting and Biochemical Selectivities of All Targeted Kinase Inhibitors Approved for Clinical Use” (PLoS ONE, 2014) can be followed below.

Common to all, as to test: Kinase profiling in a biochemical assay panel (mobility shift assays and ELISA), %-inhibition at 1 μM; selectivity entropy
Background: ELISA stands for enzyme-linked immunosorbent assay.

Assay [1] has as its target T1, panel of more than 300 wild-type and mutant kinases (313 kinase panel) (Homo sapiens, UniProt Q9NZJ5).
T1 sequence (Q9NZJ5 30-1116): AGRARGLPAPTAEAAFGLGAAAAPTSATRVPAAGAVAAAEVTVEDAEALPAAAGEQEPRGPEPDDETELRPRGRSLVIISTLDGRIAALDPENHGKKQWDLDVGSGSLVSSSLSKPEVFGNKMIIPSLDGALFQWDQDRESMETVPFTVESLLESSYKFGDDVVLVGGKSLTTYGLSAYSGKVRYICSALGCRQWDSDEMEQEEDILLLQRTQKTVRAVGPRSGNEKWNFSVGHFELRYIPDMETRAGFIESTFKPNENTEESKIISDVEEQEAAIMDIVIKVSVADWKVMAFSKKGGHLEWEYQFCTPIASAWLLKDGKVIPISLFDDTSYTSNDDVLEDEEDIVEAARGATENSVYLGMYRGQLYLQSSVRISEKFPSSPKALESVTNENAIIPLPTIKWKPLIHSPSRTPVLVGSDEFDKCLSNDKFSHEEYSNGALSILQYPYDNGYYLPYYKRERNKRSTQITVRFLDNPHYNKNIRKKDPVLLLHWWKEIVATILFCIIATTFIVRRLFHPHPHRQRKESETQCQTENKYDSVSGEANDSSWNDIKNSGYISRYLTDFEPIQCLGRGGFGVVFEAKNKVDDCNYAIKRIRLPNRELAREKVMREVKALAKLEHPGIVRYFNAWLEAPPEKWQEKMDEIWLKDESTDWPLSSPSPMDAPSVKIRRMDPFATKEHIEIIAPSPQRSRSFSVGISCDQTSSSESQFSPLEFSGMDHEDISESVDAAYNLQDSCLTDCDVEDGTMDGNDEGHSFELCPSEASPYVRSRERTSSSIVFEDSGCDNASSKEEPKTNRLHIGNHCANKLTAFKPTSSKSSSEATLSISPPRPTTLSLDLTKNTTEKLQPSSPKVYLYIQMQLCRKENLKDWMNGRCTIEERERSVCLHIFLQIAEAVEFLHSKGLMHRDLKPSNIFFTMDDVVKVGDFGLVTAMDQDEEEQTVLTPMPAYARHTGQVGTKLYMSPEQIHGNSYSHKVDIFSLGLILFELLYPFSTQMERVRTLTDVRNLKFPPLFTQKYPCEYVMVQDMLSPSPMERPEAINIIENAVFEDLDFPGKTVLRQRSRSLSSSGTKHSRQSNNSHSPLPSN

The target of assay [2] is T2, panel of more than 300 wild-type and mutant kinases (313 kinase panel) (Homo sapiens, UniProt P43403).
T2 sequence (P43403 1-619): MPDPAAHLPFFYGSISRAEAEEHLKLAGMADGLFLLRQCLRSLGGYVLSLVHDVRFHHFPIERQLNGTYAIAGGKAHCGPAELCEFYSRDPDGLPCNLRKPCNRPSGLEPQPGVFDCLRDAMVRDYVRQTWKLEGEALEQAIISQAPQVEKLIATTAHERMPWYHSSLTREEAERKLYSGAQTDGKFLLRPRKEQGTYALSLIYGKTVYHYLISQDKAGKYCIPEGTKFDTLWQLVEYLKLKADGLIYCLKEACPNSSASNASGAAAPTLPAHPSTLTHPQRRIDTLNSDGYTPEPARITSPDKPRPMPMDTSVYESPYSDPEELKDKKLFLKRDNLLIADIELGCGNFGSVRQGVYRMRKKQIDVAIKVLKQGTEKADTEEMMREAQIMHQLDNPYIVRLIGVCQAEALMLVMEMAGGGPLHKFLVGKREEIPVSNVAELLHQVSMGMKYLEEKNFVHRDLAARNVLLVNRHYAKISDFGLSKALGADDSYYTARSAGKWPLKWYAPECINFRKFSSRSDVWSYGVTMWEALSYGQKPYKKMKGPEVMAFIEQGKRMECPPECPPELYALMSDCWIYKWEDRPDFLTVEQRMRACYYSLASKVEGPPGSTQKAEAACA

For assay [3], the target named is T3, panel of more than 300 wild-type and mutant kinases (313 kinase panel) (Homo sapiens, UniProt Q9HBY8).
T3 sequence (Q9HBY8 1-367): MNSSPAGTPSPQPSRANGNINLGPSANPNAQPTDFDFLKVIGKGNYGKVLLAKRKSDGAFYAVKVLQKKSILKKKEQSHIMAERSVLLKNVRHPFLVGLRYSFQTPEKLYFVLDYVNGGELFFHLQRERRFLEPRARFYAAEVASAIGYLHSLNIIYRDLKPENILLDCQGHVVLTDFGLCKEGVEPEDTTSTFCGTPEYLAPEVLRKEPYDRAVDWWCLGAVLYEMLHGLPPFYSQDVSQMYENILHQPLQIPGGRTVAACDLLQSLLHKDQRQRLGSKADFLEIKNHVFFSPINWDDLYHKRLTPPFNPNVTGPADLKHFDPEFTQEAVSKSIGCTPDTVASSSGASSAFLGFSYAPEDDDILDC

Each structure is given as a SMILES string.

`CN(C)C/C=C/C(=O)Nc1cc2c(Nc3ccc(F)c(Cl)c3)ncnc2cc1O[C@H]1CCOC1` [afatinib]: the “%-inhibition of PEK” value in assay [1] (kinase PEK, 1 μM) amounted to 12%.
Turning to `COc1cc(Nc2c(C#N)cnc3cc(OCCCN4CCN(C)CC4)c(OC)cc23)c(Cl)cc1Cl` [bosutinib], the “%-inhibition of ZAP70” value in assay [2] (kinase ZAP70, compound at 1 μM) was determined as 76%. In addition, the “%-inhibition of PEK” value in assay [1] (kinase PEK, 1 μM) worked out at 11%. For the same molecule, the “%-inhibition of SGK2” value in assay [3] (kinase SGK2, 1 μM) is on record as -3.37%.
The corresponding values for `COc1cc2nccc(Oc3ccc(NC(=O)C4(C(=O)Nc5ccc(F)cc5)CC4)cc3)c2cc1OC` [cabozantinib] are 0.856%, 79% and -1.48%.
The corresponding values for `C[C@@H](Oc1cc(-c2cnn(C3CCNCC3)c2)cnc1N)c1c(Cl)ccc(F)c1Cl` [crizotinib] are 21%, 1.1% and -2.31%.
For the molecule `CC(C)(C)c1nc(-c2cccc(NS(=O)(=O)c3c(F)cccc3F)c2F)c(-c2ccnc(N)n2)s1` [dabrafenib], the “%-inhibition of ZAP70” value in assay [2] (kinase ZAP70, compound at 1 μM) was found to be 3.47%. In addition, the “%-inhibition of SGK2” value in assay [3] (kinase SGK2, 1 μM) is -7.58%.
With `Cc1nc(Nc2ncc(C(=O)Nc3c(C)cccc3Cl)s2)cc(N2CCN(CCO)CC2)n1` [dasatinib], in assay [3] (kinase SGK2, 1 μM), the “%-inhibition of SGK2” value is on record as 6%.
Consider `C#Cc1cccc(Nc2ncnc3cc(OCCOC)c(OCCOC)cc23)c1` [erlotinib], for which the “%-inhibition of PEK” value in assay [1] (1 µM) is given as 1.35%. Also, the “%-inhibition of SGK2” value in assay [3] (1 µM) turned out to be 10%.
In the case of `CO[C@H]1C[C@@H]2CC[C@@H](C)[C@@](O)(O2)C(=O)C(=O)N2CCCC[C@H]2C(=O)O[C@H]([C@H](C)C[C@@H]2CC[C@@H](OCCO)[C@H](OC)C2)CC(=O)[C@H](C)/C=C(\C)[C@@H](O)[C@@H](OC)C(=O)[C@H](C)C[C@H](C)/C=C/C=C/C=C/1C` [everolimus], the “%-inhibition of ZAP70” value in assay [2] (kinase ZAP70, compound at 1 μM) is -2%. In assay [1] (kinase PEK, 1 μM), the “%-inhibition of PEK” value is reported as 5.28%. In assay [3] (kinase SGK2, 1 μM), the “%-inhibition of SGK2” value is -2%.
On to `O=S(=O)(c1cccc2cnccc12)N1CCCNCC1` [fasudil], for which, in assay [2] (kinase ZAP70, compound at 1 μM), the “%-inhibition of ZAP70” value is -2%. Also, in assay [1] (kinase PEK, 1 μM), the “%-inhibition of PEK” value was -7.4%. The “%-inhibition of SGK2” value in assay [3] (kinase SGK2, 1 μM) is -0.764%.
The corresponding values for `CS(=O)(=O)CCNCc1ccc(-c2ccc3ncnc(Nc4ccc(OCc5cccc(F)c5)c(Cl)c4)c3c2)o1` [lapatinib] are 6%, -0.193% and 1.81%.
On to `Cc1cn(-c2cc(NC(=O)c3ccc(C)c(Nc4nccc(-c5cccnc5)n4)c3)cc(C(F)(F)F)c2)cn1` [nilotinib], for which the “%-inhibition of ZAP70” value in assay [2] (1 µM) is 2.52%. Also, the “%-inhibition of PEK” value in assay [1] (kinase PEK, 1 μM) came to 0.387%. Further, the “%-inhibition of SGK2” value in assay [3] (kinase SGK2, 1 μM) was found to be 24%.
`Cc1ccc(Nc2nccc(N(C)c3ccc4c(C)n(C)nc4c3)n2)cc1S(N)(=O)=O` [pazopanib]: the “%-inhibition of ZAP70” value in assay [2] (kinase ZAP70, compound at 1 μM) is given as 39%. In assay [1] (kinase PEK, 1 μM), the “%-inhibition of PEK” value came to 2.38%. For the same molecule, the “%-inhibition of SGK2” value in assay [3] (kinase SGK2, 1 μM) was -3.44%.
The corresponding values for `Cc1ccc(C(=O)Nc2ccc(CN3CCN(C)CC3)c(C(F)(F)F)c2)cc1C#Cc1cnc2cccnn12` [ponatinib] are 5%, 65% and 12%.
In the same order, the values of `CNC(=O)c1cc(Oc2ccc(NC(=O)Nc3ccc(Cl)c(C(F)(F)F)c3)c(F)c2)ccn1` [regorafenib] are -0.475%, 12% and 1%.
The corresponding values for `N#CC[C@H](C1CCCC1)n1cc(-c2ncnc3[nH]ccc23)cn1` [ruxolitinib] are 2.76%, -0.459% and -1.48%.
In the case of `CO[C@H]1C[C@@H]2CC[C@@H](C)[C@@](O)(O2)C(=O)C(=O)N2CCCC[C@H]2C(=O)O[C@H]([C@H](C)C[C@@H]2CC[C@@H](OC(=O)C(C)(CO)CO)[C@H](OC)C2)CC(=O)[C@H](C)/C=C(\C)[C@@H](O)[C@@H](OC)C(=O)[C@H](C)C[C@H](C)/C=C/C=C/C=C/1C` [temsirolimus], the “%-inhibition of ZAP70” value in assay [2] (kinase ZAP70, compound at 1 μM) is listed as -2.76%. In addition, the “%-inhibition of PEK” value in assay [1] (kinase PEK, 1 μM) amounted to 8%. Also, in assay [3] (kinase SGK2, 1 μM), the “%-inhibition of SGK2” value is recorded as -2.66%.
With `CC(=O)Nc1cccc(-n2c(=O)n(C3CC3)c(=O)c3c(Nc4ccc(I)cc4F)n(C)c(=O)c(C)c32)c1` [trametinib], the “%-inhibition of ZAP70” value in assay [2] (kinase ZAP70, compound at 1 μM) is -3%. Further, the “%-inhibition of PEK” value in assay [1] (kinase PEK, 1 μM) is 1.13%. The “%-inhibition of SGK2” value in assay [3] (kinase SGK2, 1 μM) is -7%.
The corresponding values for `COc1cc2c(Nc3ccc(Br)cc3F)ncnc2cc1OCC1CCN(C)CC1` [vandetanib] are 4.47%, 4.69% and -2%.
With `CCCS(=O)(=O)Nc1ccc(F)c(C(=O)c2c[nH]c3ncc(-c4ccc(Cl)cc4)cc23)c1F` [vemurafenib], the “%-inhibition of ZAP70” value in assay [2] (kinase ZAP70, compound at 1 μM) is reported as 6%. Further, the “%-inhibition of PEK” value in assay [1] (kinase PEK, 1 μM) is 11%. The “%-inhibition of SGK2” value in assay [3] (kinase SGK2, 1 μM) was determined as 2.66%.
